Reference: patent US10118943B2, “Compounds and methods for inhibiting cell death” (Ramot at Tel-Aviv University Ltd., priority 2012, dated 2018)
Entries after “also recorded” stand apart in the source; their conditions may differ. Each block holds one molecule with its values, some of them ahead of it.

How the values were obtained:
[1] = system: PC12 cells; test: PC12 cell survival assay, zinc toxicity, MTS (Example 1); conditions: 400 μM zinc, 4 hrs, peptide 10^−9M
Method: PC12 cells (Pheochromocytoma cells) (ATCC, Bethesda, Md., USA) were seeded at 3×10^4 cells/cm^2 on poly-L-Lysine coated plastic tissue culture dishes (Corning, Lowell, Mass., USA) to form an adherent monolayer. Cells were maintained in Dulbecco's modified Eagle's medium (DMEM) supplemented with 10% horse serum (HS), 5% fetal calf serum (FCS), 2 mM glutamine, 100 U/ml penicillin and […] streptomycin (Biological Industries, Beit Haemek, Israel). PC12 differentiation was induced by nerve growth factor (NGF, Sigma) at concentrations of 50 ng/ml by replacing half of the medium every other day until the cells acquired a differentiated morphology. Differentiated cells were defined as bearing two or more neurites with lengths equal to or more than twice the diameter of the cell body (P. Lamoureux et al., The Journal of cell biology 110, 71 (January, 1990)). The cells were incubated in 5% CO2 in a humidified incubator at 37° C. The cells were sub-cultured every 5 days at a 4:1 split ratio by pipetting. The medium was changed every 2 or 3 days after adhesion.
Transfections were performed using Lipofectamine RNAiMAX (Invitrogen). Transfection was carried out according to manufacturer's protocol. For rat MAPRE3 knockdown, PC12 cells or neurons were plated in growth medium without antibiotics at concentration of 10^4 cells/0.32 cm^2 such that they will be 30-50% confluent at the time of transfection. To obtain the highest transfection efficiency and low non-specific effects, siRNA transfection was performed in the following optimized conditions: 50 nM for neurons and 25 nM PC12 of each siRNA construct with 0.2 μl Lipofectamine RNAiMAX (Invitrogen) was added per well of the 96-well plate and scaled up for different 24 or 6-well plates, according to the manufacturer's instructions. The medium was changed one day after transfection. 48 and 72 hours later, cells were harvested to assay for gene knockdown at the RNA and protein levels.
The cells were incubated for 4 hrs at 37° C. 5% CO2. Survival was measured using the MTS assay.
Metabolic activity of cells was measured by the CellTiter 96® Aqueous Non-Radioactive Cell Proliferation kit in accordance with the manufacturer's instructions (Promega). The assay uses a colorimetric method for determining the number of viable cells employing a tetrazolium compound [3-(4,5-dimethylthiazol-2-yl)-5-(3-carboxymethoxyphenyl)-2-(4-sulfophenyl)-2H-tetrazolium, MTS] and an electron-coupling reagent, phenazine methosulfate (PMS). MTS is bio-reduced by cells into a formazan product that is detected at 490 nm. The conversion of MTS into the formazan form is accomplished by dehydrogenase enzymes found in metabolically active cells. Thus, the quantity of formazan product as measured by the amount of 490 nm absorbance is directly proportional to the number of living cells in culture (A. H. Cory, T. C. Owen, J. A. Barltrop, J. G. Cory, Cancer Commun 3, 207 (July, 1991)).

[2] = target: T1, full-length human EB3 recombinant protein (Homo sapiens, UniProt Q9UPY8); test: Sulfolink coupling gel-NAP affinity chromatography with recombinant EB3, western analysis; format: binding; conditions: 2 mg soluble peptide incubated with recombinant EB3 and column beads
T1 construct: Full-length human EB3 was subcloned into pEX-N-His vector; 6xHis (N, cleaved yes); made in house; host or cells: E. coli BL21(DE3)
T1 sequence (Q9UPY8 whole entry): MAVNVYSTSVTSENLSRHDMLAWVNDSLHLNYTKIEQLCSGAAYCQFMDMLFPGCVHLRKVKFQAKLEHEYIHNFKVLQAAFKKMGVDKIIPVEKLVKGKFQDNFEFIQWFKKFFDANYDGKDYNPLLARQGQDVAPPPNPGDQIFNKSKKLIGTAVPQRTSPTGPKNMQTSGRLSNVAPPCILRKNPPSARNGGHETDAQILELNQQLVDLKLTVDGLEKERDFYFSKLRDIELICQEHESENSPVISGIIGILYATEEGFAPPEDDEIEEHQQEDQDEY
Method: (§1) Column load, flow through, wash and elution fractions were further analyzed by polyacrylamide gel electrophoresis, followed by western analysis with EB3 antibodies. […] Column chromatography, elution and western blots were performed as above. The extract fractions (flow, wash and elution) were separated by electrophoresis followed by protein detection (FIG. 6).

[3] = system: primary cortical neurons; test: PSD-95 density in primary cortical neuron culture; format: cell-based, rat; conditions: neurons treated for 2 hrs
Method: Methods: 1. Primary cultures of neurons were prepared as follows. Newborn rats were sacrificed on postnatal day 1. Cerebral cortex tissue was then dissected and dissociated individually from each pup with the Papain Dissociation System (PDS; Worthington Biochemical Corporation) according to the manufacturer's instructions. 2. Cells were fixed with ice cold methanol, blocked with 2% bovine serum albumin (BSA) and 5% normal goat serum in Tris buffered saline containing tween 20 (TBS-T; 20 mM Tris pH 7.5, 136.8 mM NaCl, and 0.05% v/v Tween 20), and incubated with primary antibody followed by the appropriate secondary antibody. 3. Primary antibodies that were used include: monoclonal anti PSD-95 (ab-2723, Abcam), monoclonal anti Tyr-α-tubulin antibody (YL1/2) (VMA1864, Abcys, Paris, France), polyclonal anti Glu-α-tubulin antibody (L4) (AbC0101, Abcys, Paris, France), DyLight 488-labeled secondary goat anti-mouse IgG, DyLight 633-labeled secondary goat anti-rabbit IgG (KPL, Gaithersburg, Md., USA), Cy3-conjugated secondary goat anti-Rat IgG, (Jackson ImmunoResearch). 4. Images were collected with a Leica SP5 confocal laser scanning microscope (Mannheim, Germany) with 63× oil immersion optics, laser lines at 488, 561, 633 nm. Identical confocal laser scanning microscopy (CLSM) parameters (e.g., scanning line, laser light, gain, and offset etc.) were used for control and NAP treated cells.
For instance, a PSD-95 expression assay using primary cortical neuron cultures established from suitable animals may be performed to confirm a compound's activity in promoting cell plasticity. More specifically, primary cultures of neurons are prepared by first taking cerebral cortex tissue from newborn rats on postnatal day 1. The cerebral cortex tissue is then dissected and dissociated individually from each animal. Cells are fixed with ice cold methanol, blocked (e.g., with bovine serum albumin (BSA) and normal goat serum), and incubated with primary antibody (e.g., monoclonal antibody against PSD-95), optionally followed by the appropriate secondary antibody for imaging purposes. Images of primary neuronal cultures are taken and compared between cultures with or without being exposed to a test compound. An increased PSD-95 expression is indicative of the test compound being capable of promoting or protecting cell plasticity, especially neuronal plasticity.
Cerebral cortex tissue from newborn rats was dissected and dissociated individually from each pup with the Papain Dissociation System (PDS), (Worthington Biochemical Corporation) according to the manufacturer's instructions. Cortical neurons were maintained in Neurobasal medium (NB), (Gibco) supplemented with NeuroCult B27-SM1 ([…]), 1% Glutamax (Gibco), and grown on poly-D-lysine-coated cell culture glass cover slips.
Images were collected with a Leica SP5 confocal laser scanning microscope (Mannheim, Germany) with 63× oil immersion optics, laser lines at 488, 561, 633 nm or with LSM 510 META (Zeiss, Jena, Germany) confocal laser scanning microscope with 63× oil immersion optics, laser lines at 488, 568, 633 nm. When comparing fluorescence intensities, identical CLSM parameters (e.g., scanning line, laser light, gain, and offset etc.) were used. All of the fluorescent signals acquired were above the autofluorescent background as measured from a control slide stained with secondary antibody without a primary antibody. To compare the relative levels of protein expression, the average integrated density (AID) image analysis procedure was used for cell immunostains. In brief, integrated density is defined by the sum of the values of the pixels in the selected region of interest (ROI). This is equivalent to the product of Area and Mean Gray Value. AID for the positive stained area was determined by measuring the fluorescent intensity of the ROI, which is above the positive cut-off intensity. […]

[4] = system: astrocytes; test: MT organization in astrocytes (FIG. 14); format: cell-based, rat
Method: Newborn rats (Harlan, Jerusalem, Israel) were sacrificed by decapitation, and the brain was removed (D. E. Brenneman et al., J Pharmacol Exp Ther 309, 1190 (June, 2004)). The tissue was minced with scissors and placed in Hank's balanced salts solution 1 (S1), containing HBSS (Biological Industries, Beit Haemek, Israel), 15 mM HEPES buffer, pH 7.3 (Biological Industries, Beit Haemek, Israel), and 0.25% trypsin (Biological Industries) in an incubator at 37° C. 5% CO2 for 20 min. The cells were then placed in 5 mL of solution 2 (S2) containing 10% heat inactivated fetal serum (Biological Industries), 0.1% gentamycin sulphate solution (Biological Industries), and 0.1% penicillin-streptomycin-nystatin solution (Biological Industries) in Dulbecco's modified Eagle's medium (DMEM, Sigma, Rehovot, Israel). The cells were allowed to settle and are then transferred to a new tube containing 2.5 mL of S2 and triturated using a Pasteur pipette. Cell density was determined using a hemocytometer (Neubauer Improved, Germany) and 15×10^6 cells/15 mL S2 are inoculated into each 75-cm^2 flask (Corning, Corning, N.Y., USA). Cells are incubated at 37° C. 10% CO2. The medium was changed after 24 h, and cells are grown until confluent.
The flasks were shaken to dislodge residual neurons and oligodendrocytes that may be present. Flasks were then washed with 10 mL cold HBSS×1, HEPES 15 mM. 5 mL of versene-trypsin solution (BioLab, Jerusalem, Israel) were added to each flask, and the flasks are incubated at room temperature for 5 min to remove astrocytes. The flasks were shaken to dislodge the cells. The versenetrypsin solution was neutralized with 5 mL of S2. The cell suspension was collected and centrifuged at 100 g for 10 min. The supernatant was removed and the cells resuspended in S2. Cells were inoculated into 75-cm^2 flasks or plated in 35-mm dishes (Corning, Corning, N.Y., USA) and incubated until confluence at 37° C. 10% CO2. […]

[5] = system: PC12 cells; conditions: ZnCl2 400 μM, peptide 10^−13M
Method: FIG. 15: Rat pheochromocytoma cells (PC12) were seeded on Poly-D-Lysine coated 96-well tissue culture dishes in high concentration (30,000 cells/well). On the day of the experiment the cells were treated with ZnCl2 (400 μM) either alone or in combination with different concentration of SKIP for 4 h. After 4 h the cell viability was analyzed by MTS assay. […] All values are from one experiment performed in hexplicate.
Rat pheochromocytoma cell (PC12, ATCC, Bethesda, Md., USA) were grown in 10-cm tissue culture dishes (Corning). The base medium for this cell line was RPMI-1640 Medium (Invitrogen) supplemented with 10% heat-inactivated horse serum, 5% fetal bovine serum and solution containing 100 U/ml penicillin together with […] streptomycin (Biological Industries, Beit Haemek, Israel). The cells were incubated in 95% air; 5% CO2 in a humidified incubator at 37° C. The medium was changed every 2 to 3 days. The cells were subcultured when cell density reached 4×10^6 cells/ml. The cells were split in a ratio of 1:4.
On the day before the experiment cells were to be harvested, re-suspended and seeded on tissue culture dishes. For cell viability measurements, cells were seeded on Poly-D-Lysine coated 96-well tissue culture dishes (Sigma-Aldrich) at a concentration of 3×10^4 cells/well.
The cell viability is measured by colorimetric method that determines the number of viable cells in culture. This method is based on the bio-reduction of the tetrazolium compound [3-(4,5-dimethylthiazol-2-yl)-5-(3-carboxymethoxyphenyl)-2-(4-sulfophenyl)-2H-tetrazolium; MTS] by living cells into a colored formazan product. This reaction is occurring in the presence of an electron coupling reagent (phenazine ethosulfate; PES). The amount of formazan product is measured by ELISA plate reader at 490 nm and is directly proportional to the number of living cells in culture (CellTiter 96® AQueous One Solution Cell Proliferation Assay; Promega, Madison, Wis., USA).

[6] = target: T2, Full-length human EB3 recombinant protein (human, UniProt Q9UPY8 1-281); test: competition with soluble peptide on the NAP affinity column; western blot
T2 construct: mature; Full-length protein; also called recombinant EB3; MAPRE3
T2 sequence (Q9UPY8 whole entry): as above
Method: as §1, with “6). […] In order to verify that EB3 was indeed eluted from the column, beads were taken from the column resin mixed with sample buffer and western blot analysis was performed (FIG. 6—"[…]" most right lane).” for “6).”

Molecule: Acetyl-NAPVSKIPQ-NH2 (Ac-NAPVSKIPQ-NH2)
protection against cell death induced by zinc toxicity (MTS survival) [1]: provided protection against zinc toxicity
protection against cell death induced by zinc toxicity (MTS survival) ([1]; listed as Ac-SKIP): significantly increased survival
protection against cell death induced by zinc toxicity (MTS survival) ([1]; listed as Acetyl-NAPVSKIPQ): significantly increased survival

Molecule: NAPVAAAAQ [negative control peptide]
competition for EB3 binding to column-bound NAP [2]: no competition
derivative peptides effect on PSD-95 density vs vehicle controls (FIG. 10c) [3]: did not enhance PSD-95 staining; also recorded: not affected

Molecule: NAPVAIPQ [NAPVAIPQ (S5A)]
activity of NAP-like peptide (FIG. 14) [4]: inactive

Molecule: NAPVSAIPQ [negative control peptide]
competition for EB3 binding to column-bound NAP [2]: no competition
derivative peptides effect on PSD-95 density vs vehicle controls (FIG. 10c) [3]: did not enhance PSD-95 staining; also recorded: not affected

Molecule: NAPVSGIPQ (synthetic novel peptide core sequence derived from hybrid microtubule end-binding protein 3 (EB3)-binding microtubule plus-end tracking proteins (+TIPs) and activity- dependent neurotrophic factor (ADNF) active core site (NAP)) [NAPVSGIPQ (SEQ ID NO:5)]
protection against Zn toxicity (MTS viability vs Zn alone) [5]: showed protection

Molecule: NAPVSIAQ [NAPVSIAQ (P7A)]
activity of NAP-like peptide (FIG. 14) [4]: inactive
effect on MT organization ([4]; 4 hours of incubation): did not mimic NAP activity

Molecule: NAPVSRIPQ
protection against cell death induced by zinc toxicity (MTS survival) [1]: inactive

Molecule: NAPVTRIPQ
protection against cell death induced by zinc toxicity (MTS survival) [1]: inactive

binding result [6]: binds
Molecule: NAPVSKIPQ
